# Measured values reported in patent US20130131321A1, “LIGANDS FOR ANTIBODY AND Fc-FUSION PROTEIN PURIFICATION BY AFFINITY CHROMATOGRAPHY” (GRAFFINITY PHARMACEUTICALS GMBH, priority 2010, published 2013).
# Columns and labels:
# Palivizumab = assay: Microtiter plate chromatography of resins, Palivizumab (bound, yield); assay type: binding, humanized
# Bevacizumab [1] = target: T1, Bevacizumab (Homo sapiens, UniProt P01857); assay: Langmuir isotherms by batch adsorption; assay type: binding, humanized; details: Bevacizumab in PBS pH 7.3, 25° C., at least 3 h
# T1 construct: fused on or other part: humanised anti-VEGF-A VH domain N-terminal of the gamma-1 constant region (engineered, no UniProt entry)
# Description: Experiments were performed with Bevacizumab as antibody. Parameters of Langmuir isotherms for purified antibody were determined by batch adsorption experiments in 96-well microtiter plates. In each well, 10 μl of sorbent slurry (50% v/v) were mixed with 100 μl of protein solution. Initial concentrations varied from 0.05-5 mg ml^−1 in phosphate-buffered saline (0.15 M NaCl, 20 mM phosphate buffer, pH 7.3; PBS). Reactions were agitated vigorously at 25° C. for at least 3 h. Afterwards, antibody concentration in the supernatents were measured by Bradford assay.
# Parameters of Langmuir isotherms, i.e. dissociation constants Kd and maximum capacities qm, were determined from the measured concentrations in supernatants. Parameters were estimated by numerical fitting of the model equation derived by Chase (4).
# Bevacizumab [2] = target: T1, Bevacizumab; assay: Uptake kinetics by batch adsorption (time-scale of binding); parameters: species or system humanized; details: 0.75 mg ml^−1 Bevacizumab in PBS, 25° C.
# Description: Uptake kinetics were investigated similarly by batch adsorption in 96-well filter plates. Again, 10 μl of sorbent slurry (50% v/v) were mixed with 100 μl of protein solution. However, a fixed initial concentration of 0.75 mg ml^−1 Bevacizumab in PBS was used. Reactions were agitated vigorously at 25° C. for up to 80 min. Supernatants were separated rapidly by spinning through filters after 2.5, 5, 10, 20, 40 and 80 minutes and sampled for analysis. Concentrations of the antibody were analyzed by Bradford assay.
# Uptake kinetics were characterized by a time-scale of binding t0.8, which was defined as the time after which 80% of the equilibrium saturation of resin with antibody had occurred. For determination of t0.8, measured concentrations in the supernatant were interpolated by fitting of double-exponentials (5) and values of t0.8 were read out from graphs. Parameters of Langmuir isotherms and time-scales of binding for in-house resins as well as for reference resins are reported in the table below.
# full length Bevacizumab = assay: SPR screening of chemical microarrays, full length Bevacizumab; assay type: binding, humanized; details: chemical microarray, immobilized ligand
# Description: Graffinity has developed high density chemical microarrays comprising thousands of small molecules immobilized onto gold chips. The arrays are constructed using maleimide-thiol coupling chemistry in combination with high density pintool spotting. For the construction, glass plates are microstructured by photolithographical methods in order to define up to 9,216 sensor fields per array. A subsequently applied gold coating provides the basis for the SPR effect and enables the formation of a binary, mixed self assembled monolayer (SAM) of two different thiols. […]
# Surface plasmons are collective oscillations of electrons at a metal surface which can be resonantly excited by polarized light of appropriate wavelength and incidence angle. […] Processes which alter the local refractive index in close proximity to the metal surface (such as antibody binding to the immobilized ligands) can therefore be monitored sensitively. […] While scanning over a range of wavelengths covering the SPR resonance conditions, reflection images are recorded stepwise. […]
# The experimental results of the microarray screening campaigns were analyzed by manual hit selection using in-house developed software routines as well as by an in-depth data analysis by commercially available data mining tools. […]
# Bevacizumab [3] = target: T1, Bevacizumab; assay: Microtiter plate chromatography of resins, Bevacizumab whole IgG (bound, yield, selectivity); assay type: binding, humanized
# Tocilizumab = assay: Microtiter plate chromatography of resins, Tocilizumab (bound, yield); assay type: binding, humanized
smiles,measurement,setting,value
"COc1ccc(NC(=O)c2cc(-c3ccco3)n(C)n2)cc1C(=O)NCCCN [Ligand L1, 5-[5-(2-Furyl)-1-methylpyrazol-3-yl]carboxamido-2-methoxybenzoic acid N-(3-aminopropyl)amide]",Palivizumab Bound (%),Palivizumab,100%
same,Palivizumab Yield (%),Palivizumab,92%
same,"qm (maximum capacity, Langmuir isotherm)",Bevacizumab [1],36 mg per ml resin
same,"t0.8 (time-scale of binding, 80% of equilibrium saturation)",Bevacizumab [2],9.9 min
same,SPR binding to full length Bevacizumab,full length Bevacizumab,distinct binding
same,Bevacizumab IgG Bound (%),Bevacizumab [3]; fraction of whole IgG Bevacizumab bound to resin,100%
same,Bevacizumab IgG Yield (%),Bevacizumab [3]; mass of whole IgG Bevacizumab eluted / mass injected,91%
same,Tocilizumab Bound (%),Tocilizumab,100%
same,Tocilizumab Yield (%),Tocilizumab,97%
